Source: US7256198B2, “Pyrimidoindolones and methods for using same” (Wyeth, priority 2004, dated 2007)

Biological target: T1, recombinant caspase 3 (Homo sapiens, UniProt P42574)
T1 construct: His tag (C); made in house; host or cells: E. coli
T1 sequence (P42574 29-175 limits assumed): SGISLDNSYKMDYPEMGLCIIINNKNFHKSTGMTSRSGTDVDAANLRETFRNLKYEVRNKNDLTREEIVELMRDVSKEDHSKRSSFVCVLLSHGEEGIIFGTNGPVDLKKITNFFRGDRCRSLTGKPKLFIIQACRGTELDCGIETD
T1 sequence (P42574 176-277 limits assumed): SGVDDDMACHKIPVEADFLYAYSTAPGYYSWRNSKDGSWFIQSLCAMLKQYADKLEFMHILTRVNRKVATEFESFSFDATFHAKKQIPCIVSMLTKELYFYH
Test: Caspase 3 Inhibition Assay (Ac-DEVD-AFC fluorogenic substrate cleavage)
Assay type: biochemical
Conditions: pH 7.2, 23° C.; for IC50: recombinant caspase 3 0.25 nM, Ac-DEVD-AFC 25 μM; for inhibition at 50 µM: @ 50 μM compound
Protocol: Caspase 3 was expressed intracellularly in E. coli with a c-terminal His tag. Fermentation was performed at 25° C. in a B. Braun Biotech Biostat C 10 liter bioreactor vessel. The culture was collected in IL bottles and centrifuged in Komspin KA-7.1000 rotors at approximately 8000 RCF (Relative Centrifugal Force). The cell pellets were re-suspended in 20 mM Tris pH 8.0, 500 mM NaCl, and 5 mM imidazole. The cell suspension was disrupted by passing 5 times through a microfluidizer Model 110Y (Microfluidics Corp, Newton, Mass). After centrifugation (13 kg, 30 min at 4 C), the supernatant was applied to a column of Nickle-NTA agarose. The Caspase 3 was eluted with a gradient of 5 mM to 150 mM imidazole in the above buffer. Fractions containing Caspase 3 were pooled and concentrated with a Millipore Ultrafree filtration device. The concentrated Caspase 3 solution was loaded unto a TSK gel G3000sw column (Tosoh Bioseph LLC), equilibrated with a buffer of 20 mM PIPES pH 7.2, 100 mM NaCl, 1 mM EDTA & 5 mM Cysteine. Fractions containing Caspase 3 were pooled and concentrated. Sometimes CHAPS was added to 0.1% and sucrose to 10% into the protein sample.
Caspase 3 was assayed at 23° C. (room temp) in 96-well plates using the internally quenched tetrapeptide substrate N-acetyl-aspartyl-glutamyl-valyl-aspartate-7-amino-4-trifluoromethyl coumarin (Ac-DEVD-AFC purchased from Biomol). The assays are conducted at pH 7.2 in a buffered system containing 20 mM PIPES, 100 mM NaCl, 1 mM EDTA, 0.1% CHAPS, 10% sucrose and 5 mM L-cysteine. […] A steady state rate of substrate cleavage is obtained for analysis.
The progress curves generated were fitted by computer to equation 1 to generate an IC50 value. Equation 1: y=Bmax*(1−(x^n/(K^n+x^n))), where Bmax is rate in the absence of inhibitor.

[1] = recombinant caspase 3, Ac-DEVD-AFC 25 μM, read-out: percent inhibition at the highest compound concentration

IC50 [nM]	Compound	further results
45	COC[C@@H]1CCCN1S(=O)(=O)c1ccc2c(c1)C(=O)C1=NCC3(CCCCCC3)CN12 [85/86, 8′-{[(2S)-2-(methoxymethyl)pyrrolidin-1-yl]sulfonyl}spiro[cycloheptane-1,3′-pyrimido[1,2-a]indol]-10′(2′H)-one]	–
189	COC[C@@H]1CCCN1S(=O)(=O)c1cc2c(cc1Cl)N1CCCN=C1C2=O [Example 5, 7-Chloro-8-{[(2S)-2-(methoxymethyl)pyrrolidin-1-yl-]sulfonyl}-3,4-dihydropyrimido[1,2-a]indol-10(2H)-one]	–
–	Cc1ccc2c(c1)C(=O)C1=NCCCN12 [Example 10, 8-Methyl-3,4-dihydropyrimido[1,2-a]indol-10(2H)-one]	inhibition at 50 µM [1]: 10%
–	COc1ccc2c(c1)C(=O)C1=NCCCN12 [Example 11, 8-Methoxy-3,4-dihydropyrimido[1,2-a]indol-10(2H)-one]	inhibition at 50 µM [1]: 9%
874	CC1(C)CN=C2C(=O)c3cc(Cl)ccc3N2C1 [Example 14, 8′-Chloro-3′,3′-dimethyl-3′,4′-dihydropyrimido[1,2-a]indol-10(2H)-one]	–
4590	O=C1C2=NCCCN2c2cc(Cl)c([N+](=O)[O-])cc21 [Example 15, 7-Chloro-8-nitro-3,4-dihydropyrimido[1,2-a]indol-10(2H)-one]	–
99	CC1(C)CN=C2C(=O)c3cc(C#N)ccc3N2C1 [Example 20, 3,3-Dimethyl-10-oxo-2,3,4,10-tetrahydropyrimido[1,2-a]indole-8-carbonitrile]	–
49	Cc1ccc(OC[C@@H]2CCCN2S(=O)(=O)c2ccc3c(c2)C(=O)C2=NCC(C)(C)CN23)cc1 [Example 24, 3,3-Dimethyl-8-({(2S)-2-[(4-methylphenoxy)methyl]pyrrolidin-1-yl}sulfonyl)-3,4-dihydropyrimido[1,2-a]indol-10(2H)-one]	–
98	Cc1ccc(OC[C@@H]2CCCN2S(=O)(=O)c2ccc3c(c2)C(=O)C2=NCC(C)(C)CN23)c(Cl)c1 [Example 26, 8-({(2S)-2-[(2-Chloro-4-methylphenoxy)methyl]pyrrolidin-1-yl}sulfonyl)-3,3-dimethyl-3,4-dihydropyrimido[1,2-a]indol-10(2H)-one]	–
55	CC(=O)c1ccc(OC[C@@H]2CCCN2S(=O)(=O)c2ccc3c(c2)C(=O)C2=NCC(C)(C)CN23)c(C)c1 [Example 27, 8-({(2S)-2-[(4-Acetyl-2-methylphenoxy)methyl]pyrrolidin-1-yl}sulfonyl)-3,3-dimethyl-3,4-dihydropyrimido[1,2-a]indol-10(2H)-one]	–
45	CC1(C)CN=C2C(=O)c3cc(S(=O)(=O)N4CCC[C@H]4COc4cccc(C(F)(F)F)c4)ccc3N2C1 [Example 31, 3,3-Dimethyl-8-[((2S)-2-{[3-(trifluoromethyl)phenoxy]methyl}pyrrolidin-1-yl)sulfonyl]-3,4-dihydropyrimido[1,2-a]indol-10(2H)-one]	–
1210	CC1(C)CN=C2C(=O)c3cc(S(=O)(=O)N4c5ccccc5C[C@H]4COc4ccccc4)ccc3N2C1 [Example 34, 3,3-Dimethyl-8-{[(2S)-2-(phenoxymethyl)-2,3-dihydro-1H-indol-1-yl]sulfonyl}-3,4-dihydropyrimido[1,2-a]indol-10(2H)-one]	–
–	CC1(C)CN=C2C(=O)c3cc(S(=O)(=O)N4CCC[C@H]4COc4cccnc4Br)ccc3N2C1 [Example 35, 8-[((2S)-2-{[(2-Bromopyridin-3-yl)oxy]methyl}pyrrolidin-1-yl)sulfonyl]-3,3-dimethyl-3,4-dihydropyrimido[1,2-a]indol-10(2H)-one]	inhibition at 50 µM [1]: 26%
5	CC1(C)CN=C2C(=O)c3cc(S(=O)(=O)N4CCC[C@H]4COc4cccc(Cl)n4)ccc3N2C1 [Example 40, 8-[((2S)-2-{[(6-Chloropyridin-2-yl)oxy]methyl}pyrrolidin-1-yl)sulfonyl]-3,3-dimethyl-3,4-dihydropyrimido[1,2-a]indol-10(2H)-one]	–
14	CC1(C)CN=C2C(=O)c3cc(S(=O)(=O)N4CCC[C@H]4COc4ccc(C(F)(F)F)cn4)ccc3N2C1 [Example 42, 3,3-Dimethyl-8-{[(2S)-2-({[5-(trifluoromethyl)pyridin-2-yl]oxy}methyl)pyrrolidin-1-yl]sulfonyl}-3,4-dihydropyrimido[1,2-a]indol-10(2H)-one]	–
7	CC1(C)CN=C2C(=O)c3cc(S(=O)(=O)N4CCC[C@H]4COc4cccnc4Cl)ccc3N2C1 [Example 43, 8-[((2S)-2-{[(2-Chloropyridin-3-yl)oxy]methyl}pyrrolidin-1-yl)sulfonyl]-3,3-dimethyl-3,4-dihydropyrimido[1,2-a]indol-10(2H)-one]	–
19	Cc1ccc(OC[C@@H]2CCCN2S(=O)(=O)c2ccc3c(c2)C(=O)C2=NCC(C)(C)CN23)cn1 [Example 44, 3,3-Dimethyl-8-[((2S)-2-{[(6-methylpyridin-3-yl)oxy]methyl}pyrrolidin-1-yl)sulfonyl]-3,4-dihydropyrimido[1,2-a]indol-10(2H)-one]	–
17	Cc1ccc(OC[C@@H]2CCCN2S(=O)(=O)c2ccc3c(c2)C(=O)C2=NCC(C)(C)CN23)c(I)n1 [Example 46, 8-[((2S)-2-{[(2-Iodo-6-methylpyridin-3-yl)oxy]methyl}pyrrolidin-1-yl)sulfonyl]-3,3-dimethyl-3,4-dihydropyrimido[1,2-a]indol-10(2H)-one]	–
23.4	CC1(C)CN=C2C(=O)c3cc(NS(=O)(=O)c4cccc(Br)c4)ccc3N2C1 [Example 50, 3-Bromo-N-(3,3-dimethyl-10-oxo-2,3,4,10-tetrahydropyrimido[1,2-a]indol-8-yl)benzenesulfonamide]	–
714	Cc1ccc(S(=O)(=O)Nc2ccc3c(c2)C(=O)C2=NCC(C)(C)CN23)cc1 [Example 51, N-(3,3-Dimethyl-10-oxo-2,3,4,10-tetrahydropyrimido[1,2-a]indol-8-yl)-4-methylbenzenesulfonamide]	–
285	CC1(C)CN=C2C(=O)c3cc(NS(=O)(=O)c4ccc(F)c(Cl)c4)ccc3N2C1 [Example 52, 3-Chloro-N-(3,3-dimethyl-10-oxo-2,3,4,10-tetrahydropyrimido[1,2-a]indol-8-yl)-4-fluorobenzenesulfonamide]	–
233	CC1(C)CN=C2C(=O)c3cc(NS(=O)(=O)c4ccc(Cl)c(Cl)c4)ccc3N2C1 [Example 53, 3,4-Dichloro-N-(3,3-dimethyl-10-oxo-2,3,4,10-tetrahydropyrimido[1,2-a]indol-8-yl)benzenesulfonamide]	–
3140	CC1(C)CN=C2C(=O)c3cc(NS(=O)(=O)c4cc(C(F)(F)F)cc(C(F)(F)F)c4)ccc3N2C1 [Example 62, N-(3,3-Dimethyl-10-oxo-2,3,4,10-tetrahydropyrimido[1,2-a]indol-8-yl)-3,5-bis(trifluoromethyl)benzenesulfonamide]	–
–	COC[C@@H]1CCCN1C(=O)c1ccc2c(c1)C(=O)C1=NCC(C)(C)CN12 [Example 75, 8-{[(2S)-2-(Methoxymethyl)pyrrolidin-1-yl]carbonyl}-3,3-dimethyl-3,4-dihydropyrimido[1,2-a]indol-10(2H)-one]	inhibition at 1 µM (@ 1 μM compound, recombinant caspase 3, Ac-DEVD-AFC 25 μM, read-out: percent inhibition at the highest compound concentration): 10%
–	CC1(C)CN=C2C(=O)c3cc(C(=O)Nc4ccccc4)ccc3N2C1 [Example 76, 3,3-Dimethyl-10-oxo-N-phenyl-2,3,4,10-tetrahydropyrimido[1,2-a]indole-8-carboxamide]	inhibition at 50 µM [1]: 36%
35000	CC1(C)CN=C2C(=O)c3cc(C(=O)NC4CCCC4)ccc3N2C1 [Example 77, N-Cyclopentyl-3,3-dimethyl-10-oxo-2,3,4,10-tetrahydropyrimido[1,2-a]indole-8-carboxamide]	–
–	CC1(C)CN=C2C(=O)c3cc(C(=O)N4CCCC4)ccc3N2C1 [Example 78, 3,3-Dimethyl-8-(pyrrolidin-1-ylcarbonyl)-3,4-dihydropyrimido[1,2-a]indol-10(2H)-one]	inhibition at 50 µM [1]: 37%
21000	CC1(C)CN=C2C(=O)c3cc(C(=O)N4CCCCC4)ccc3N2C1 [Example 79, 3,3-Dimethyl-8-(piperidin-1-ylcarbonyl)-3,4-dihydropyrimido[1,2-a]indol-10(2H)-one]	–
–	CC1(C)CN=C2C(=O)c3cc(C(=O)N4CCc5ccccc54)ccc3N2C1 [Example 80, 8-(2,3-Dihydro-1H-indol-1-ylcarbonyl)-3,3-dimethyl-3,4-dihydropyrimido[1,2-a]indol-10(2H)-one]	inhibition at 50 µM [1]: 46%
